Among the data in patent publication US8426437B2, “Pyrroloquinoline derivatives and their use as protein kinases inhibitors” (Pierre Fabre Medicament, priority 2005, dated 2013) are IC50 and inhibition values, retold here.

Some results are limits rather than exact numbers.

Assay type in all cases: biochemical
For one assay, the target named is T1, RET (Homo sapiens, UniProt P07949).
T1 construct: purchased Upstate 14-570MG
Kind of assay: Inhibition of RET kinase activity, recombinant RET method (Kinase-Glo). The settings on record: RET 2 μg/ml, poly-EY4 substrate, 20 μM ATP, two hours at 30° C. The method, boiled down:
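Recombinant RET at 2 μg/ml in 20 mM MOPS/NaOH pH 7.0, 1 mM EDTA, 5% glycerol, 0.01% Brij35, 0.1% 2-mercaptoethanol, 1 mg/ml BSA; compounds 10 nM–30 μM final.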

For a further assay, the target named is T2, JAK3 (h) (Homo sapiens, UniProt P52333).
T2 construct: purchased Upstate
T2 sequence (P52333 1-1124): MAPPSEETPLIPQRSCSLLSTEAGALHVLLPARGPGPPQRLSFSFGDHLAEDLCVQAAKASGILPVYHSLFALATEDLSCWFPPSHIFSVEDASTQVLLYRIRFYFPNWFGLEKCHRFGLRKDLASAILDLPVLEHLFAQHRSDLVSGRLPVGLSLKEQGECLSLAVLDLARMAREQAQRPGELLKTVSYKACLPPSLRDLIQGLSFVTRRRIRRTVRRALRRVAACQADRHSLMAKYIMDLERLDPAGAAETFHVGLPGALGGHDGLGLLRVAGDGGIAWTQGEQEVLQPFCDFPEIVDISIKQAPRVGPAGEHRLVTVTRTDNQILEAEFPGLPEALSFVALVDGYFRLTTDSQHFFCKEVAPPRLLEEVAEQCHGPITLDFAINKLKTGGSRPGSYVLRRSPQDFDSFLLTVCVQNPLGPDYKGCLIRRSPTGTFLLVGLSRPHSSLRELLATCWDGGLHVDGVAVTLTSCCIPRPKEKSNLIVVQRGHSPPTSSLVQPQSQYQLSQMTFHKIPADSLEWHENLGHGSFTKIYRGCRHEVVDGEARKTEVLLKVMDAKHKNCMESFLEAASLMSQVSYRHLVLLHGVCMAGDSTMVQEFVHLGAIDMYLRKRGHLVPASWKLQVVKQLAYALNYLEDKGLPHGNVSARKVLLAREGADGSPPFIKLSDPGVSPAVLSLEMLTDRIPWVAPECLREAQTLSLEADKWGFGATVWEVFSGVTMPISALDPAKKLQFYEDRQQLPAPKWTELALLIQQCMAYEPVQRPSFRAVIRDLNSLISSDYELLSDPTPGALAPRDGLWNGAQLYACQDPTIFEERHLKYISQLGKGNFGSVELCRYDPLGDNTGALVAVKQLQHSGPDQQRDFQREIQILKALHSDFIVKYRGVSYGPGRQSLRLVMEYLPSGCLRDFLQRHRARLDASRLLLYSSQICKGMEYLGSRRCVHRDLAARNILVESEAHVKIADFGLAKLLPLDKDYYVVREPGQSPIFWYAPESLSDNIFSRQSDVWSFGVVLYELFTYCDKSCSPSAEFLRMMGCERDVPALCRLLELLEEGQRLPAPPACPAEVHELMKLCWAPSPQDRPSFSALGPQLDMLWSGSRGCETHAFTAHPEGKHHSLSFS
Kind of assay: Upstate kinase panel: JAK3. How it is done:
(§1) These kinases are produced by Upstate and screened according to the respective protocols indicated by the supplier (http://www.upstate.com/features/kp_protocols.asp). Examples 1, 12, 166 and 238 were tested at a concentration of 20 μM, 10 μM, 1 μM and 1 μM respectively in the presence of 10 μM of ATP for examples 1 and 12 and at the concentrations of ATP shown in parentheses for examples 166 and 238. The results shown in Table VII correspond to percentage inhibition of the kinase tested in the presence of the compound, relative to a control effected without the compound.

For another assay, the target named is T3, PKBγ (h) (Homo sapiens, UniProt Q9Y243).
T3 construct: purchased Upstate
T3 sequence (Q9Y243 whole entry): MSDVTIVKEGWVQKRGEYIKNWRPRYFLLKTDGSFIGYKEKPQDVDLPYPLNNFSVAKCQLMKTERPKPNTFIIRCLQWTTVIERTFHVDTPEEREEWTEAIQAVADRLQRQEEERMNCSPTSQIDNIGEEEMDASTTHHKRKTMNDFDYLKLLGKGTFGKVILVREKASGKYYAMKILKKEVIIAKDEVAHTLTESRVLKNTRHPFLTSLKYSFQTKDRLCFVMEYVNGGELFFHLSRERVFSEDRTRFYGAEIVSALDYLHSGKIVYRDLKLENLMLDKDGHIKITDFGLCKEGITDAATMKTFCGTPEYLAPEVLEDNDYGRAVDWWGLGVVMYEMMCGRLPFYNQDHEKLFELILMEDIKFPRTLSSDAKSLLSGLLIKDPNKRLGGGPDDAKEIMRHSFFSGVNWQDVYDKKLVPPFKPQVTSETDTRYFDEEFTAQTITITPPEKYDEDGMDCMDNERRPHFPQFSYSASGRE
Kind of assay: Upstate kinase panel: PKBγ. How it is done: as §1

The target in a further assay is T4, MAPK2 (h) (Homo sapiens, UniProt P28482).
T4 construct: purchased Upstate
T4 sequence (P28482 whole entry): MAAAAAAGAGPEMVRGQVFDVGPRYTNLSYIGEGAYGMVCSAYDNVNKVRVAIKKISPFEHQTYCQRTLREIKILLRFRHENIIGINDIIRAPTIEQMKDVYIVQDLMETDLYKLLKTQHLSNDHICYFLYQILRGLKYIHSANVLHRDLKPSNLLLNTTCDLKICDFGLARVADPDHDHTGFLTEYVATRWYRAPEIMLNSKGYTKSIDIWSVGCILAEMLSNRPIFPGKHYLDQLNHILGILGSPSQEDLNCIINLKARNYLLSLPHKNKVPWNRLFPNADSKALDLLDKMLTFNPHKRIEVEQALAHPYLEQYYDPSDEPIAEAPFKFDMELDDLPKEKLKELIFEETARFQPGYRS
As to the kind of experiment: Upstate kinase panel: MAPK2. Here is the method: as §1

The target of another assay is T5, c-RAF (h) (Homo sapiens, UniProt P04049, Y340D/Y341D).
T5 construct: purchased Upstate
T5 sequence (P04049 306-648 Y340D/Y341D limits assumed): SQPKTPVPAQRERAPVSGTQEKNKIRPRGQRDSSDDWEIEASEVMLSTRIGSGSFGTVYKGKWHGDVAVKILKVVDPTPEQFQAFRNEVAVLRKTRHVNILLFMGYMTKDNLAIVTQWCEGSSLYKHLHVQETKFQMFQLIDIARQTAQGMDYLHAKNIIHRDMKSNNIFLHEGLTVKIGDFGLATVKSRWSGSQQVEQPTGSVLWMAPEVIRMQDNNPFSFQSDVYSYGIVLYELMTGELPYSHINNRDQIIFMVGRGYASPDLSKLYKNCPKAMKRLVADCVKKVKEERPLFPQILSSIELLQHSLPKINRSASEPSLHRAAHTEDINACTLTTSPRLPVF
As to the kind of experiment: Upstate kinase panel: c-RAF. Here is the method:
as §1

Another assay deals with T6, FGFR2 (h) (Homo sapiens, UniProt P21802).
T6 construct: purchased Upstate
Kind of assay: Upstate kinase panel: FGFR2. The settings on record: 10 μM ATP. How it is done: as §1

The target in another assay is T7, IGF-1R (h) (Homo sapiens, UniProt P08069).
T7 construct: purchased Upstate
As to the kind of experiment: Upstate kinase panel: IGF-1R. The settings on record: 10 μM ATP. How it is done:
as §1

A further assay has as its target T8, CDK2/cyclinE (h) (Homo sapiens, UniProt P24941).
T8 construct: purchased Upstate
As to the kind of experiment: Upstate kinase panel: CDK2/cyclinE. The note with it: 10 μM ATP. How it is done:
as §1

In the next assay the target is T9, PDGFRβ (h) (Homo sapiens, UniProt P09619).
T9 construct: purchased Upstate
T9 sequence (P09619 33-1106): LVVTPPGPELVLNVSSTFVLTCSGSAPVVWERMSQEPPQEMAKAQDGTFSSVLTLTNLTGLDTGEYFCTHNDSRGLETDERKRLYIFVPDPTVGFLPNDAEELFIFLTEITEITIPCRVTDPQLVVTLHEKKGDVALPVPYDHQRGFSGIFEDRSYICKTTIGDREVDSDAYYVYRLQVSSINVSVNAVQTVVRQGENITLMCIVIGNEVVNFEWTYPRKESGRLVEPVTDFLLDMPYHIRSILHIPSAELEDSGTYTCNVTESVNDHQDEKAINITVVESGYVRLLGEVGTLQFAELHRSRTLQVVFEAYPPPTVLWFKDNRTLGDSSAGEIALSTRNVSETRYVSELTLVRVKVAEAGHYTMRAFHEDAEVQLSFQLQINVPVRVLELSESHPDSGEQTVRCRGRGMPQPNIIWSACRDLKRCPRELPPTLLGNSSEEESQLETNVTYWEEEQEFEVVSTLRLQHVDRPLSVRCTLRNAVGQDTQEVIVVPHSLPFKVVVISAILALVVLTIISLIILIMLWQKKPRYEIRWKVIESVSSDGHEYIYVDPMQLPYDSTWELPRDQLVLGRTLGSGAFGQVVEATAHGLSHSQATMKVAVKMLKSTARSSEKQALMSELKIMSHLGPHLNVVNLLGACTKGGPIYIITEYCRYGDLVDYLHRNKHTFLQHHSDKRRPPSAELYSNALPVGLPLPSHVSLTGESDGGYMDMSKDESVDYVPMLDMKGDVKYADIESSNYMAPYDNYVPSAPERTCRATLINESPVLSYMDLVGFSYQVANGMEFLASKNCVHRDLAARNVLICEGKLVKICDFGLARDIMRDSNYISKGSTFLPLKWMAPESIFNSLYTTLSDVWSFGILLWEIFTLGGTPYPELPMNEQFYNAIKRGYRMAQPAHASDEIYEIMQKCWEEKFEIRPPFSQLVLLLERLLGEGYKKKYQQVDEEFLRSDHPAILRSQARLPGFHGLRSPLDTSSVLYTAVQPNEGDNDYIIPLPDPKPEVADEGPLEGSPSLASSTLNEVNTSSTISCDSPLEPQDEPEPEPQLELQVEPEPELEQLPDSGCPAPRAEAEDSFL
As to the kind of experiment: Upstate kinase panel: PDGFRβ. Here is the method: as §1

Another assay deals with T10, ROCK-II (h) (Homo sapiens, UniProt O75116).
T10 construct: purchased Upstate
T10 sequence (O75116 whole entry): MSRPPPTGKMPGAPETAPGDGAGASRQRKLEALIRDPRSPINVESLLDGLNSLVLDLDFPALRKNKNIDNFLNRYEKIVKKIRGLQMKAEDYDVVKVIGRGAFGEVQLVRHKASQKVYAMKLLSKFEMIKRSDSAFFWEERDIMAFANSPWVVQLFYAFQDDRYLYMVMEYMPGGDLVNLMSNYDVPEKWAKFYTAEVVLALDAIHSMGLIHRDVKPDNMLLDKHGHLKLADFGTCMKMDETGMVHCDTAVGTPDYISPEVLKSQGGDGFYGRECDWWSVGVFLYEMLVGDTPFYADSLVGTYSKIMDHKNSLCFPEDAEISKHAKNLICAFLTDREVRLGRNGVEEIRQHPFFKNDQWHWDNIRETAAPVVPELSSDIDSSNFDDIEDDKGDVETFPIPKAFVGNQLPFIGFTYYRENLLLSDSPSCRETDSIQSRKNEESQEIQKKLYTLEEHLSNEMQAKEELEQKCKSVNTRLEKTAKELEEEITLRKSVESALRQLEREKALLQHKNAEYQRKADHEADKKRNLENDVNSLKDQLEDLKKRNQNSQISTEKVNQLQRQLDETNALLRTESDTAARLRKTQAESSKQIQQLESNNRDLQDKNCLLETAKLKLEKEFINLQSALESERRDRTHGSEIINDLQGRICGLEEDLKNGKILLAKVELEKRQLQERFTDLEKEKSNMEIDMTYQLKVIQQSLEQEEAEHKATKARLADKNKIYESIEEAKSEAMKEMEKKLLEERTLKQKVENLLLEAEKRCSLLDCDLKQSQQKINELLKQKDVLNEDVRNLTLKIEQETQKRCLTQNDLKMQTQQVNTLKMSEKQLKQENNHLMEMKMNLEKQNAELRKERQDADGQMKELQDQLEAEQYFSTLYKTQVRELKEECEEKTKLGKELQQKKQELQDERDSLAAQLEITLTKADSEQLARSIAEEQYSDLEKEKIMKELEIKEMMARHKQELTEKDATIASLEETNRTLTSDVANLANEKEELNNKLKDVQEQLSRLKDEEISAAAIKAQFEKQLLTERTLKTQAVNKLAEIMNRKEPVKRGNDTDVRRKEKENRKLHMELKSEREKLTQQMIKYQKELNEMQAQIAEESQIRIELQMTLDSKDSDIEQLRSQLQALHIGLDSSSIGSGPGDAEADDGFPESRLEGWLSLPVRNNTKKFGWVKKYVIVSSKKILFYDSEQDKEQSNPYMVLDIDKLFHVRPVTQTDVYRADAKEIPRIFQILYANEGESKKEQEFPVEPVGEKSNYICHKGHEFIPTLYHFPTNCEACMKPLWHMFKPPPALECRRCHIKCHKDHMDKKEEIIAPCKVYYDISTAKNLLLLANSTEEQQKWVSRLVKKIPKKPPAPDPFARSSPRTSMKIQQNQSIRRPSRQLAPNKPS
Kind of assay: Upstate kinase panel: ROCK-II. Here is the method:
as §1

Another assay deals with T11, GSK3B (h) (Homo sapiens, UniProt P49841).
T11 construct: purchased Upstate
As to the kind of experiment: Upstate kinase panel: GSK3B. How it is done:
as §1

Setting [1] is: compound 20 μM, 10 μM ATP, read-out: % inhibition at 20 μMol.
Setting [2] is: compound 20 μM, read-out: % inhibition at 20 μMol.
Setting [3] is: compound 10 μM, 10 μM ATP, read-out: % inhibition at 10 μMol.
The mark [4] stands for this setting: compound 10 μM, read-out: % inhibition at 10 μMol.
Where [5] appears, read: compound 1 μM, ATP (15), read-out: % inhibition at 1 μMol.

T1 sequence (P07949 29-1114): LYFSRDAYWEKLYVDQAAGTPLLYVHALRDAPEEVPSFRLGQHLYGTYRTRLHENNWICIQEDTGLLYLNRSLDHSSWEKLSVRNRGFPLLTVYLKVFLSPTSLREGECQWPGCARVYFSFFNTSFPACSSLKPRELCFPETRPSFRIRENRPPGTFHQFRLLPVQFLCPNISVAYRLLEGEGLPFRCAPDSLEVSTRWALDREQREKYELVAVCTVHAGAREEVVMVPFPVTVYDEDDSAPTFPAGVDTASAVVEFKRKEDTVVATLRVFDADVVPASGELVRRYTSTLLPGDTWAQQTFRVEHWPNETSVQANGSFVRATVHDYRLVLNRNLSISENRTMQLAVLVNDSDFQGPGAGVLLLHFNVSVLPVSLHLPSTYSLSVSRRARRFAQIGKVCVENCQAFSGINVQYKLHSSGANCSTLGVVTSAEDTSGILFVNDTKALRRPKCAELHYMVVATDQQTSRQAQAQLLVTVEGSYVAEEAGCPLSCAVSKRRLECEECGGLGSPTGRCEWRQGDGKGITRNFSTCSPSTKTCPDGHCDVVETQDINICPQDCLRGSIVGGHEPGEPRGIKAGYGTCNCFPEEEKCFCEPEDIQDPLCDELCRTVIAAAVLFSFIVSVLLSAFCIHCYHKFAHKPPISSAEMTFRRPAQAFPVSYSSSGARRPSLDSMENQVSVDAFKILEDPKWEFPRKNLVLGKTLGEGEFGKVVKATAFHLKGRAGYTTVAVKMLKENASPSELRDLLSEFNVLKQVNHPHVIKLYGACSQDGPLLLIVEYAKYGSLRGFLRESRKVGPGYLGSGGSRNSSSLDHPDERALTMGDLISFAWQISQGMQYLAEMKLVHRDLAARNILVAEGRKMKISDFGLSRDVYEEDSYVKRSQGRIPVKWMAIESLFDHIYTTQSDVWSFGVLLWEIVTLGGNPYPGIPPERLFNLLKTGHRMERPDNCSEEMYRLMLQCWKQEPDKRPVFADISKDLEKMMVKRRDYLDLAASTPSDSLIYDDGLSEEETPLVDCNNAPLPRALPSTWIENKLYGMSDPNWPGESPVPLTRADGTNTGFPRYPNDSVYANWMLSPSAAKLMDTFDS

As for `CCOC(=O)c1c[nH]c2c(=O)[nH]c3ccccc3c12` [Compound 1, 4-Oxo-4,5-dihydro-3H-pyrrolo[2,3-c]quinoline-1-ethyl carboxylate], on RET, the IC50 lay in the range of 1000 to 10000 nM. Moreover, the inhibition at 20 µM at JAK3 (h) (setting [1]) came to 58%; on PKBγ (h) (setting [1]) it was 5%; on MAPK2 (h) (setting [1]), 1%; on c-RAF (h) (setting [1]) it was 17%; at FGFR2 (h) (setting [2]), 82%; on IGF-1R (h) (setting [2]), 42%. The inhibition at 20 µM at CDK2/cyclinE (h) (setting [2]) was determined as 97%; on PDGFRβ (h) (setting [1]), 13%; at ROCK-II (h) (setting [1]) it was 8%.

Consider `CCOC(=O)c1c[nH]c2c(=O)[nH]c3ccc(S(=O)(=O)Nc4ccc(F)cc4)cc3c12` [Compound 12, 8-(4-Fluorophenylsulfamoyl)-4-oxo-4,5-dihydro-3H-pyrrolo[2,3-c]quinoline-1-ethyl carboxylate], for which, at RET, the 50% inhibitory concentration (IC50) was < 100 nM. Also, the inhibition at 10 µM on JAK3 (h) (setting [3]) is 50%; at PKBγ (h) (setting [3]) it was 20%; on MAPK2 (h) (setting [3]), 3%; at c-RAF (h) (setting [3]), 79%; at FGFR2 (h) (setting [4]), 91%; on IGF-1R (h) (setting [4]), 0%. The inhibition at 10 µM at CDK2/cyclinE (h) (setting [4]) came out at 12%; at GSK3B (h) (setting [3]), 22%; on PDGFRβ (h) (setting [3]) it was 0%; on ROCK-II (h) (setting [3]), 17%.

Take `CCOC(=O)c1c[nH]c2c(=O)[nH]c3ccc(-c4cccc(S(C)(=O)=O)c4)cc3c12` [Compound 238, 8-(3-Methanesulfonyl-phenyl)-4-oxo-4,5-dihydro-3H-pyrrolo[2,3-c]quinoline-1-ethyl carboxylate]: at RET, the concentration for half-maximal inhibition (IC50) was 100 to 1000 nM. The inhibition at 1 µM is 5% on JAK3 (h) (compound 1 μM, ATP (10), read-out: % inhibition at 1 μMol); 2% at PKBγ (h) (compound 1 μM, ATP (200), read-out: % inhibition at 1 μMol); 0% at MAPK2 (h) (compound 1 μM, ATP (155), read-out: % inhibition at 1 μMol); 3% on c-RAF (h) (compound 1 μM, ATP (45), read-out: % inhibition at 1 μMol); 0% on GSK3B (h) (setting [5]); 0% on PDGFRβ (h) (compound 1 μM, ATP (120), read-out: % inhibition at 1 μMol). Besides, on ROCK-II (h) (setting [5]), the inhibition at 1 µM turned out to be 5%.
